Patent publication US11033547B2, “Carboxamide-pyrimidine derivatives as SHP2 antagonists” (Merck Patent GmbH, priority 2019, dated 2021)
Where a name gives a salt, the structure may show the parent alone.

target: Full length SHP2 protein (Recombinant Human SHP-2) (Homo sapiens, UniProt Q06124); experiment: SHP2 biochemical assay (DiFMUP substrate, activating peptide IRSI_2pY); conditions: DiFMUP substrate, activating peptide IRSI_2pY, 60 min at RT; read-out: SHP-2 Biochemical assay IC50
Protocol: The inhibition of SHP2 by compounds of the invention was monitored using the surrogate substrate DiFMUP after protein activation by a peptide bearing two appropriately spaced phosphotyrosine. […] The generation of the DiFMU product by activated SHP2 was monitored through Fluorescence measurement with a PerkinElmer Envision reader.
The inhibitor dose response curves were analyzed with Genedata Screener.

Chain of Full length SHP2 protein (Recombinant Human SHP-2) (Q06124 2-593 limits assumed): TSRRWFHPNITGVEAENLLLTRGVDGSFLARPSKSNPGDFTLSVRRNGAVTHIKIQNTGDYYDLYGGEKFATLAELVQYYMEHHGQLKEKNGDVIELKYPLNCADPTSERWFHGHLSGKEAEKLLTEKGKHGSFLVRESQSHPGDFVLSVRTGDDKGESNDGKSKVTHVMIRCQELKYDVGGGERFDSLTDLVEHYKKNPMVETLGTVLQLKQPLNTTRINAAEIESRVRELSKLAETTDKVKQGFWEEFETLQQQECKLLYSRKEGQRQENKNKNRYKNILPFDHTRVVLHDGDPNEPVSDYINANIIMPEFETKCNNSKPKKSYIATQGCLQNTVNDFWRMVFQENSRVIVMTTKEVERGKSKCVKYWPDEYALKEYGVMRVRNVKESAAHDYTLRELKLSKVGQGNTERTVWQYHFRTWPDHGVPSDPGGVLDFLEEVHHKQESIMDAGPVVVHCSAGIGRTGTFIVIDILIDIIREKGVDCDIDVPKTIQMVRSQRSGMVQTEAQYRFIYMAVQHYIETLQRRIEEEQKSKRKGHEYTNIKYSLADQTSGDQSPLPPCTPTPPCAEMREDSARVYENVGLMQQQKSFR

IC50	Compound
1.5 µM	NC[C@@H]1CN(c2nc(N)c(-c3cccc(Cl)c3Cl)c(C(N)=O)n2)C[C@H]1c1ccccc1 [Compound 51, 6-amino-2-[(3R,4R)-3-(aminomethyl)-4-phenylpyrrolidin-1-yl]-5-(2,3-dichlorophenyl)pyrimidine-4-carboxamide]
4.7 µM	NCC1CN(c2nc(N)c(-c3cccc(Cl)c3Cl)c(C(N)=O)n2)CC12CCOCC2 (stereo not drawn) [Compound 23, 6-amino-2-[4-(aminomethyl)-8-oxa-2-azaspiro[4.5]decan-2-yl]-5-(2,3-dichlorophenyl)pyrimidine-4-carboxamide]
> 10 µM	CC1(N)CCN(c2nc(O)c(-c3cccc(F)c3)c(C(N)=O)n2)CC1 [Compound 25, 2-(4-amino-4-methylpiperidin-1-yl)-5-(3-fluorophenyl)-6-hydroxypyrimidine-4-carboxamide hydrochloride]
15 µM	NC(=O)c1nc(N2CCC(N)(C(F)F)CC2)nc(N)c1-c1cccc(Cl)c1Cl (atropisomer, axis not shown; (P)) [Compound 106, (5P)-6-amino-2-[4-amino-4-(difluoromethyl)piperidin-1-yl]-5-(2,3-dichlorophenyl)-pyrimidine-4-carboxamide]
> 10 µM	Cc1nc(N2CCC3(CC2)Oc2ncccc2[C@@H]3N)nc(C(N)=O)c1-c1cccc(Cl)c1Cl [Compound 127, (4P)-2-[(3S)-3-amino-3H-spiro[furo[2,3-b]pyridine-2,4′-piperidin]-1′-yl]-5-(2,3-dichlorophenyl)-6-methylpyrimidine-4-carboxamide]
> 10 µM	NC(=O)c1nc(N2C[C@H]3CCCCC[C@@H](C2)[C@@H]3N)nc(N)c1-c1cccc(Cl)c1Cl [Compound 13, 6-amino-5-(2,3-dichlorophenyl)-2-[(1R,7S,11s)-11-amino-9-azabicyclo[5.3.1]undecan-9-yl]pyrimidine-4-carboxamide]
5.2 µM	Cc1nc(N2C[C@H]3CCC(N)[C@@H]3C2)nc(C(N)=O)c1-c1cccc(Cl)c1Cl (stereo partly drawn) [Compound 73, 2-((3aS,6aS)-4-Amino-hexahydro-cyclopenta-[c]pyrrol-2-yl)-5-(2,3-dichloro-phenyl)-6-methyl-pyrimidine-4-carboxylic acid amide]
2.7 µM	NC(=O)c1nc(N2CC3CCCC(C2)C3N)nc(N)c1-c1cccc(Cl)c1Cl (stereo not drawn) [Compound 6, 6-amino-2-{9-amino-3-azabicyclo[3.3.1]nonan-3-yl}-5-(2,3-dichlorophenyl)pyrimidine-4-carboxamide]
6.3 µM	NC(=O)c1nc(N2CCC(C3OCCCC3N)CC2)nc(N)c1-c1cccc(Cl)c1Cl (stereo not drawn) [Compound 39, 6-amino-2-[4-(3-aminooxan-2-yl)piperidin-1-yl]-5-(2,3-dichlorophenyl)pyrimidine-4-carboxamide]
3.7 µM	NC(=O)c1nc(N[C@@H]2CCCC[C@@H]2N)nc(N)c1-c1cccc(Cl)c1Cl [Compound 65, 6-amino-2-{[(1R,2S)-2-aminocyclohexyl]amino}-5-(2,3-dichlorophenyl)-pyrimidine-4-carboxamide]
9.6 µM	CC(C)C1N(c2nc(N)c(-c3cccc(Cl)c3Cl)c(C(N)=O)n2)CC12CC(N)C(O)C2 (stereo not drawn) [Compound 10, 6-amino-2-[6-amino-7-hydroxy-1-(propan-2-yl)-2-azaspiro[3.4]octan-2-yl]-5-(2,3-dichlorophenyl)pyrimidine-4-carboxamide]
2.3 µM	Cc1nc(N[C@H]2CC[C@@H](N)CC2)nc(C(N)=O)c1-c1cccc(Cl)c1Cl [Compound 93, 2-(4-Amino-cyclohexyl-amino)-5-(2,3-dichloro-phenyl)-6-methyl-pyrimidine-4-carboxylic acid amide]
5.3 µM	NC[C@@H]1[C@H]2CN(c3nc(N)c(-c4cccc(Cl)c4Cl)c(C(N)=O)n3)C[C@@H]12 [Compound 70, 6-amino-2-[(1R,5S,6R)-6-(aminomethyI)-3-azabicyclo-[3.1.0]hexan-3-yl]-5-(2,3-dichlorophenyl)pyrimidine-4-carboxamide]
1.1 µM	Cc1nc(N2CCC3(CCC[C@H]3N)C2)nc(C(N)=O)c1-c1cccc(Cl)c1Cl (stereo in doubt) [Compound 35, 2-((R)-6-Amino-2-aza-spiro[4.4]non-2-yl)-5-(2,3-dichloro-phenyl)-6-methyl-pyrimidine-4-carboxylic acid amide]
> 10 µM	CC1(N)CCN(c2ncc(-c3cccc4nonc34)c(C(N)=O)n2)CC1 [Compound 61, 2-(4-Amino-4-methyl-piperidin-1-yl)-5-benzo[1,2,5]-oxadiazol-4-yl-pyrimidine-4-carboxylic acid amide]
12 µM	CC1(N)CCN(c2nc(N)c(-c3cccc(Cl)c3Cl)c(C(=O)NCCO)n2)CC1 [Compound 17, 6-Amino-2-(4-amino-4-methyl-piperidin-1-yl)-5-(2,3-dichlorophenyl)-pyrimidine-4-carboxylic acid (2-hydroxy-ethyl)-amide]

IC50	Compound
> 10 µM	Cc1nc(N2CC(N)(CO)C2)nc(C(N)=O)c1-c1cccc(Cl)c1Cl [Compound 57, 2-(3-Amino-3-hydroxymethyl-azetidin-1-yl)-5-(2,3-dichloro-phenyl)-6-methyl-pyrimidine-4-carboxylic acid amide]
3.1 µM	Cc1nc(NC2CCCC2CN)nc(C(N)=O)c1-c1cccc(Cl)c1Cl (stereo not drawn) [Compound 43, 2-(2-Aminomethyl-cyclopentylamino)-5-(2,3-dichloro-phenyl)-6-methyl-pyrimidine-4-carboxylic acid amide]
7.7 µM	NCC1(O)CN(c2nc(N)c(-c3cccc(Cl)c3Cl)c(C(N)=O)n2)C1 [Compound 54, 6-amino-2-[3-(aminomethyl)-3-hydroxyazetidin-1-yl]-5-(2,3-dichlorophenyl)-pyrimidine-4-carboxamide]
3.7 µM	NC[C@@]12CCC[C@@H]1CN(c1nc(N)c(-c3cccc(Cl)c3Cl)c(C(N)=O)n1)C2 (atropisomer, axis not shown; (M)) [Compound 99, (5M)-2-[(3aR,6aS)-3a-(aminomethyl)octahydrocyclopenta[c]pyrrol-2-yl]-6-amino-5-(2,3-dichlorophenyl)pyrimidine-4-carboxamide]
4.4 µM	Cc1nc(N2CCC3(CC3N)C2)nc(C(N)=O)c1-c1cccc(Cl)c1Cl (stereo not drawn) [Compound 58, 2-(1-Amino-5-aza-spiro[2.4]hept-5-yl)-5-(2,3-dichloro-phenyl)-6-methyl-pyrimidine-4-carboxylic acid amide]
5.3 µM	Cc1nc(N2C[C@@H](N)[C@@H](O)C2)nc(C(N)=O)c1-c1cccc(Cl)c1Cl [Compound 80, 2-((3R,4S)-3-Amino-4-hydroxy-pyrrolidin-1-yl)-5-(2,3-dichloro-phenyl)-6-methyl-pyrimidine-4-carboxylic acid amide]
8.8 µM	NC(=O)c1nc(N2C[C@H]3CCCCC[C@@H](C2)C3N)nc(N)c1-c1cccc(Cl)c1Cl (single isomer, unassigned) [Compound 14]
> 10 µM	COc1c(F)ccc(-c2c(C)nc(N3CCC(C)(N)CC3)nc2C(N)=O)c1Cl (atropisomer, axis not shown; (P)) [Compound 116, (4P)-2-(4-amino-4-methylpiperidin-1-yl)-5-(2-chloro-4-fluoro-3-methoxyphenyl)-6-methylpyrimidine-4-carboxamide]
> 10 µM	Cc1nc(N2C[C@H]3CC[C@H](N)[C@H]3C2)nc(C(N)=O)c1-c1cccc(Cl)c1Cl [Compound 77, 2-((3aR,4S,6aS)-4-Amino-hexahydro-cyclopenta-[c]pyrrol-2-yl)-5-(2,3-dichloro-phenyl)-6-methyl-pyrimidine-4-carboxylic acid amide]
3.7 µM	CC1(N)CCN(c2nc(N)c(-c3cccc(F)c3)c(C(N)=O)n2)CC1 [Compound 4, 6-Amino-2-(4-amino-4-methyl-piperidin-1-yl)-5-(3-fluoro-phenyl)pyrimidine-4-carboxylic Acid Amide]
> 10 µM	Cc1nc(N[C@H]2CCC[C@@H](N)C2)nc(C(N)=O)c1-c1cccc(Cl)c1Cl (atropisomer, axis not shown; (P)) [Compound 90, (4P)-2-{[(1S,3R)-3-aminocyclohexyl]amino}-5-(2,3-dichlorophenyl)-6-methylpyrimidine-4-carboxamide]
6.7 µM	Cc1nc(N2C[C@H]3CC[C@@H](N)[C@H]3C2)nc(C(N)=O)c1-c1cccc(Cl)c1Cl [Compound 72, 2-((3aR,4R,6aS)-4-Amino-hexahydro-cyclopenta-[c]pyrrol-2-yl)-5-(2,3-dichloro-phenyl)-6-methyl-pyrimidine-4-carboxylic acid amide]
1.3 µM	NCC1CCN1c1nc(N)c(-c2cccc(Cl)c2Cl)c(C(N)=O)n1 (stereo not drawn) [Compound 71, 6-amino-2-[2-(aminomethyl)-azetidin-1-yl]-5-(2,3-dichlorophenyl)pyrimidine-4-carboxamide]
4.4 µM	C[C@]1(N)CCCN(c2nc(N)c(-c3cccc(Cl)c3Cl)c(C(N)=O)n2)CC1 (atropisomer, axis not shown; (M)) [Compound 110, (5M)-6-amino-2-[(4S)-4-amino-4-methylazepan-1-yl]-5-(2,3-dichlorophenyl)-pyrimidine-4-carboxamide]
3.2 µM	NC(=O)c1nc(N2CCC(N)(C(F)F)CC2)nc(N)c1-c1cccc(Cl)c1Cl (atropisomer, axis not shown; (M)) [Compound 107, (5M)-6-amino-2-[4-amino-4-(difluoromethyl)piperidin-1-yl]-5-(2,3-dichlorophenyl)-pyrimidine-4-carboxamide]

Compound	IC50
Cc1nc(N2CCC3(CC2)CO[C@@H](C)[C@H]3N)nc(C(N)=O)c1-c1cccc(Cl)c1Cl (single isomer, unassigned) [Compound 94]	2.6 µM
Cc1nc(N2CCC3CCC(C2)N3)nc(C(N)=O)c1-c1cccc(Cl)c1Cl (stereo not drawn) [Compound 68, 2-(3,9-Diaza-bicyclo[4.2.1]-non-3-yl)-5-(2,3-dichloro-phenyl)-6-methyl-pyrimidine-4-carboxylic acid amide]	6.2 µM
